Consider four compounds from publication PMC8869333, “Alpha-Glucosidase and Alpha-Amylase Inhibitory Activities, Molecular Docking, and Antioxidant Capacities of Plectranthus ecklonii Constituents” (Antioxidants, 2022).

In experiment [1] the target is T1, alpha-glucosidase (Saccharomyces cerevisiae, UniProt P53341).
T1 construct: purchased Sigma-Aldrich
Put plainly: Alpha-glucosidase inhibitory activity (pNPG substrate, absorbance 405 nm). The format is biochemical. As to the method: The organic solvents used in this study were supplied by Merck, Cape Town, South Africa. The NMR spectra were carried out on an Avance 400 MHz spectrometer (Bruker, Rheinstetten, Germany) using deuterated chloroform. Preparative HPLC was utilized for the purification of compounds using HPLC-grade methanol and distilled water.
The reaction was stopped by adding 50 μL of sodium carbonate Na2CO3 (0.1 M). […] Each experiment was repeated three times.

Experiment [2] in a line: Trolox equivalent absorbance capacity (TEAC) assay. To be noted: Trolox equivalents; stock solution 1 mg/mL. The method, then: The TEAC assay was carried out in accordance with the method described previously. The stock solutions, which contained 7 mM of ABTS and 140 mM of K2S2O8, were prepared and kept at −2 °C. The working solution was then prepared by adding 88 μL of K2S2O8 solution to 5 mL of ABTS solution. The two solutions were mixed and allowed to react for 24 h at room temperature in the dark. Trolox was used as a standard, with concentrations ranging between 0 and 500 μM. After 24 h, the ABTS mix solution was diluted with ethanol to read a start-up absorbance (control) of approximately 2.0 (±0.1). The stock solution (1 mg/mL) of a methanol extract and purified compounds (25 μL) were allowed to react with 300 μL of ABTS in the dark at room temperature for 30 min. The absorbance was read at 734 nm at 25 °C in the plate reader. The results are expressed as μM Trolox equivalents per milligram dry weight (μM/TE/g) of the test samples.

Experiment [3] in a line: Ferric-ion reducing antioxidant power (FRAP) assay. To be noted: ascorbic acid equivalents; stock solution 1 mg/mL. The method, then:
The FRAP assay was carried out in accordance with the method described previously. In a 96-well plate, 10 μL of the stock solution (1 mg/mL w/v) of the isolated compounds (1–3) was mixed with 300 μL of FRAP reagent. The FRAP reagent was prepared by mixing (10:1:1, v/v/v) of acetate buffer (300 mM, pH 3.6), tripyridyl triazine (TPTZ) (10 mM in 40 mM HCl), and FeCl3.6H2O (20 mM). Incubation commenced at room temperature for 30 min, and the plate was read at a wavelength of 593 nm in a Multiskan spectrum plate reader (Thermo Fisher Scientific). L-Ascorbic (Sigma-Aldrich, Cape Town, South Africa) was used as a standard, with concentrations varying between 0 and 1000 μM. Further dilutions were carried out with the samples that were highly concentrated, and such dilution factors were recorded and used for calculations of the affected samples. The results are expressed as μM ascorbic acid equivalents per milligram dry weight (μM AAE/g) of the test samples.

The nature of experiment [4]: Oxygen radical absorbance capacity (ORAC) assay. To be noted: Trolox equivalents; stock solution 1 mg/mL. The method, then: ORAC assay was conducted according to the previous method with slight modifications. The method measured the antioxidant scavenging capacity of thermal decomposition generated by peroxyl radical of 2,2-azobis (2-amino-propane) dihydrochloride (AAPH) as peroxyradical (ORACROO^.) generator. The loss of fluorescence of fluorescein (probe) was an indication of the extent of its oxidation through reaction with the peroxyl radical. The protective effect of an antioxidant was measured by assessing the fluorescence area under the curve (AUC) plot relative to that of blank in which no antioxidant was present. The analyzer was programmed to record the fluorescence of fluorescein every 2 min after AAPH was added. The fluorescein solution and sample were added in the wells of an illuminated 96-well plate, and 12 μL of each sample in a stock solution of 1 mg/mL was combined with 138 μL of a fluorescein working solution, followed by the addition of 50 μL of 150 mg of AAPH prepared in situ in 6 mL phosphate buffer. Absorbance was measured with a Fluoroskan spectrum plate reader with the excitation wavelength set as 485 nm and the emission wavelength at 530 nm. A calibration curve was used, using a Trolox stock solution of concentration in the range of 83–417 μM (R^2 = 0.9514). The ORAC values were calculated using a regression equation (Y = a + bX + Cx^2) between Trolox concentration (Y in μM) and the net area under the fluorescence decay curve (X). ORAC values are expressed as μMTE/mg of a test sample. Samples without perfect curve were further diluted, and the dilution factors were used for the calculation of such samples.

For experiment [5] the following is noted: cited from earlier work.

T1 sequence (P53341 whole entry): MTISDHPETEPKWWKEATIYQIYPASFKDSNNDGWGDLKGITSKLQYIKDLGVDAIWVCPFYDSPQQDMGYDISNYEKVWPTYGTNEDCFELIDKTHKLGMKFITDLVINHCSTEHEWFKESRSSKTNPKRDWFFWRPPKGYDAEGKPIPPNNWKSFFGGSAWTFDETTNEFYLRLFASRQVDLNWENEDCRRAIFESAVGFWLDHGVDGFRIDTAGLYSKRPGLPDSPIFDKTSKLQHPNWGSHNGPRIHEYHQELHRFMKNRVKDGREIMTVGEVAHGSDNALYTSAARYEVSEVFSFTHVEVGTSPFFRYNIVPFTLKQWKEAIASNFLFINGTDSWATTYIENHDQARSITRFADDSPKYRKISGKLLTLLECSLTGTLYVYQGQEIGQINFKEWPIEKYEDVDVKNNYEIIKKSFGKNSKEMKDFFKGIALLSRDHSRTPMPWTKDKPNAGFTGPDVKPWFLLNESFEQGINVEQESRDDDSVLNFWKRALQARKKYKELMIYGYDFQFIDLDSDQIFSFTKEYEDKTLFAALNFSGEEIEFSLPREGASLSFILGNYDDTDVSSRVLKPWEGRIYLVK

In general, IC50 refers to the concentration needed to halve the response being measured. Compound `COc1cc(C(=O)OC2CC(C)(C)C3=CC=C4C=C(C(C)C)C(=O)C(O)=C4C3(C)C2)ccc1O` (centres unmarked) [Compound 3, parvifloron G] had an IC50 in experiment [1] of 88.9 µM. In experiment [2], the TEAC is listed as 3526.1 ± 0.6 µM TE/g. Moreover, the FRAP in experiment [3] is 1455.4 ± 2.0 µM AAE/g.

On to `O=C(O[C@@H]1Cc2c(O)cc(O)cc2O[C@@H]1c1cc(O)c(O)c(O)c1)c1cc(O)c(O)c(O)c1` [EGCG, epigallocatechin gallate, reference compound], for which the ORAC in experiment [4] is 3976.82 ± 3.8 µM TE/g. In addition, in experiment [2], the TEAC is recorded as 4146.4 ± 19.8 µM TE/g. In addition, the FRAP in experiment [3] is recorded as 7524.1 ± 4.9 µM AAE/g.

On to parvifloron D [Compound 1], for which, in experiment [4], the ORAC stood at 3942.9 ± 7.1 µM TE/g. Moreover, the TEAC in experiment [2] is 470.3 ± 2.2 µM TE/g. In addition, the FRAP in experiment [3] is 1043.9 ± 2.6 µM AAE/g. For the same compound, the concentration for half-maximal inhibition (IC50) in experiment [5] (read-out: DPPH radical scavenging IC50) was 1300 ± 100 µM.

Broadly, the EC50 is the concentration needed to bring the measured effect to its halfway point. Consider parvifloron F [Compound 2], for which, in experiment [4], the ORAC is 1726.1 ± 2.6 µM TE/g. Besides, the TEAC in experiment [2] is given as 1069.3 ± 2.4 µM TE/g. Further, in experiment [3], the FRAP is listed as 1155.5 ± 2.3 µM AAE/g. Moreover, the EC50 in experiment [5] (read-out: DPPH radical scavenging EC50) was 131 µM.
